“Also recorded” adds a separate entry of the source.
How the values were obtained:
SARS-CoV-2^WK−521 = test: Immunocytochemistry assay of infected VeroE6 cells; format: cell-based; conditions: for infected cells by immunocytochemistry: VeroE6 cells exposed to SARS-CoV-2^WK−521; for infectivity and cytopathic effect of SARS-CoV-2: VeroE6^TMPRSS2 cells
SARS-CoV-2 3CLpro = SARS-CoV-2 3CLpro (Severe acute respiratory syndrome coronavirus 2, UniProt P0DTD1); test: SARS-CoV-2 3CLpro; format: biochemical
SARS-CoV-2 = format: cell-based; conditions: VeroE6 cells

Row | Structure (SMILES) | infected cells by immunocytochemistry (SARS-CoV-2^WK−521; 1 μM compound) | infected cells by immunocytochemistry (SARS-CoV-2^WK−521; 10 μM compound) | infected cells by immunocytochemistry (SARS-CoV-2^WK−521; 100 μM compound) | infectivity and cytopathic effect of SARS-CoV-2 (SARS-CoV-2^WK−521) | further results
1 | CC(C)(C)[C@H](NC(=O)C(F)(F)F)C(=O)N1C[C@H]2[C@@H]([C@H]1C(=O)N[C@H](C#N)C[C@@H]1CCCNC1=O)C2(C)C [Compound 5e, (1R,2S,5S)-N-((S)-1-Cyano-2-((S)-2-oxopiperidin-3-yl)ethyl)-3-((S)-3,3-dimethyl-2-(2,2,2-trifluoroacetamido)butanoyl)-6,6-dimethyl-3-azabicyclo[3.1.0]hexane-2-carboxamide] | some infected cells were observed | hardly any infected cells | hardly any infected cells | significantly reduced; also recorded: potently blocked | toxicity (VeroE6 cells): without significant toxicity; improvement of Mpro inhibitory activity over nirmatrelvir 1 (SARS-CoV-2 3CLpro; ratio of Ki values): more than 6 fold
2 | CC(C)(C)[C@H](NC(=O)C(Cl)(Cl)Cl)C(=O)N1C[C@H]2[C@@H]([C@H]1C(=O)N[C@H](C#N)C[C@@H]1CCCNC1=O)C2(C)C [Compound 5f, (1R,2S,5S)-N-((S)-1-Cyano-2-((S)-2-oxopiperidin-3-yl)ethyl)-3-((S)-3,3-dimethyl-2-(2,2,2-trichloroacetamido)butanoyl)-6,6-dimethyl-3-azabicyclo[3.1.0]hexane-2-carboxamide] |  |  |  |  | improvement in antiviral activity over nirmatrelvir 1 (SARS-CoV-2; ratio of EC50 values): over 7 fold
3 | CC(C)(C)[C@H](NC(=O)C(F)(F)F)C(=O)N1C[C@H]2[C@@H]([C@H]1C(=O)N(C(=O)C(F)(F)F)[C@H](C#N)C[C@@H]1CCNC1=O)C2(C)C [Compound 5h, (1R,2S,5S)-N-((S)-1-Cyano-2-((S)-2-oxopyrrolidin-3-yl)ethyl)-3-((S)-3,3-dimethyl-2-(2,2,2-trifluoroacetamido)butanoyl)-6,6-dimethyl-N-(2,2,2-trifluoroacetyl)-3-azabicyclo[3.1.0] hexane-2-carboxamide] |  |  |  |  | Mpro inhibitory activity (in words) (SARS-CoV-2 3CLpro): no appreciable; antiviral activity (in words) (SARS-CoV-2): no appreciable
4 | CC(C)(C)[C@H](NC(=O)OCc1cccnc1)C(=O)N1C[C@H]2[C@@H]([C@H]1C(=O)N[C@H](C#N)C[C@@H]1CCNC1=O)C2(C)C [Compound 5k, Pyridin-3-ylmethyl((2S)-1-((1R,2S,5S)-2-((1-cyano-2-((S)-2-oxopyrrolidin-3-yl)ethyl)carbamoyl)-6,6-dimethyl-3-azabicyclo[3.1.0]hexan-3-yl)-3,3-dimethyl-1-oxobutan-2-yl)carbamate] |  |  |  |  | improvement of antiviral activity compared to benzyl carbamate derivative 5i (SARS-CoV-2): > 8 fold
5 | CC(C)(C)NC(=O)N[C@H](C(=O)N1C[C@H]2[C@@H]([C@H]1C(=O)N[C@H](C#N)C[C@@H]1CCNC1=O)C2(C)C)C(C)(C)C [Compound 5m, (1R,2S,5S)-3-((S)-2-(3-(Tert-butyl)ureido)-3,3-dimethylbutanoyl)-N-((S)-1-cyano-2-((S)-2-oxopyrrolidin-3-yl)ethyl)-6,6-dimethyl-3-azabicyclo[3.1.0]hexane-2-carboxamide] |  |  |  |  | loss of antiviral activity compared to Boc-derivative 5g (SARS-CoV-2): 3 fold
6 | CC(C)(C)[C@H](NC(=O)C(F)(F)F)C(=O)N1C[C@H]2[C@@H]([C@H]1C(=O)N[C@H](C#N)C[C@@H]1CCNC1=O)C2(C)C [Nirmatrelvir, (1R,2S,5S)-N-((S)-1-Cyano-2-((S)-2-oxopyrrolidin-3-yl)ethyl)-3-((S)-3,3-dimethyl-2-(2,2,2-trifluoroacetamido)butanoyl)-6,6-dimethyl-3-azabicyclo[3.1.0]hexane-2-carboxamide, reference compound] | complete viral breakthrough | hardly any infected cells | hardly any infected cells | potently blocked | 

Reference: PMC10964431 (European journal of medicinal chemistry, 2024)
